In patent US8815882B2, “Pyrazole aminopyrimidine derivatives as LRRK2 modulators” (Genentech, Inc., priority 2010, dated 2014) one finds Ki data, which are given here for 26 compounds.

Each structure is given as a SMILES string.

One assay deals with T1, LRRK2 (Homo sapiens, UniProt Q5S007, G2019S).
T1 construct: purchased Invitrogen PV4882 (lot 567054A)
T1 sequence (Q5S007 whole entry G2019S): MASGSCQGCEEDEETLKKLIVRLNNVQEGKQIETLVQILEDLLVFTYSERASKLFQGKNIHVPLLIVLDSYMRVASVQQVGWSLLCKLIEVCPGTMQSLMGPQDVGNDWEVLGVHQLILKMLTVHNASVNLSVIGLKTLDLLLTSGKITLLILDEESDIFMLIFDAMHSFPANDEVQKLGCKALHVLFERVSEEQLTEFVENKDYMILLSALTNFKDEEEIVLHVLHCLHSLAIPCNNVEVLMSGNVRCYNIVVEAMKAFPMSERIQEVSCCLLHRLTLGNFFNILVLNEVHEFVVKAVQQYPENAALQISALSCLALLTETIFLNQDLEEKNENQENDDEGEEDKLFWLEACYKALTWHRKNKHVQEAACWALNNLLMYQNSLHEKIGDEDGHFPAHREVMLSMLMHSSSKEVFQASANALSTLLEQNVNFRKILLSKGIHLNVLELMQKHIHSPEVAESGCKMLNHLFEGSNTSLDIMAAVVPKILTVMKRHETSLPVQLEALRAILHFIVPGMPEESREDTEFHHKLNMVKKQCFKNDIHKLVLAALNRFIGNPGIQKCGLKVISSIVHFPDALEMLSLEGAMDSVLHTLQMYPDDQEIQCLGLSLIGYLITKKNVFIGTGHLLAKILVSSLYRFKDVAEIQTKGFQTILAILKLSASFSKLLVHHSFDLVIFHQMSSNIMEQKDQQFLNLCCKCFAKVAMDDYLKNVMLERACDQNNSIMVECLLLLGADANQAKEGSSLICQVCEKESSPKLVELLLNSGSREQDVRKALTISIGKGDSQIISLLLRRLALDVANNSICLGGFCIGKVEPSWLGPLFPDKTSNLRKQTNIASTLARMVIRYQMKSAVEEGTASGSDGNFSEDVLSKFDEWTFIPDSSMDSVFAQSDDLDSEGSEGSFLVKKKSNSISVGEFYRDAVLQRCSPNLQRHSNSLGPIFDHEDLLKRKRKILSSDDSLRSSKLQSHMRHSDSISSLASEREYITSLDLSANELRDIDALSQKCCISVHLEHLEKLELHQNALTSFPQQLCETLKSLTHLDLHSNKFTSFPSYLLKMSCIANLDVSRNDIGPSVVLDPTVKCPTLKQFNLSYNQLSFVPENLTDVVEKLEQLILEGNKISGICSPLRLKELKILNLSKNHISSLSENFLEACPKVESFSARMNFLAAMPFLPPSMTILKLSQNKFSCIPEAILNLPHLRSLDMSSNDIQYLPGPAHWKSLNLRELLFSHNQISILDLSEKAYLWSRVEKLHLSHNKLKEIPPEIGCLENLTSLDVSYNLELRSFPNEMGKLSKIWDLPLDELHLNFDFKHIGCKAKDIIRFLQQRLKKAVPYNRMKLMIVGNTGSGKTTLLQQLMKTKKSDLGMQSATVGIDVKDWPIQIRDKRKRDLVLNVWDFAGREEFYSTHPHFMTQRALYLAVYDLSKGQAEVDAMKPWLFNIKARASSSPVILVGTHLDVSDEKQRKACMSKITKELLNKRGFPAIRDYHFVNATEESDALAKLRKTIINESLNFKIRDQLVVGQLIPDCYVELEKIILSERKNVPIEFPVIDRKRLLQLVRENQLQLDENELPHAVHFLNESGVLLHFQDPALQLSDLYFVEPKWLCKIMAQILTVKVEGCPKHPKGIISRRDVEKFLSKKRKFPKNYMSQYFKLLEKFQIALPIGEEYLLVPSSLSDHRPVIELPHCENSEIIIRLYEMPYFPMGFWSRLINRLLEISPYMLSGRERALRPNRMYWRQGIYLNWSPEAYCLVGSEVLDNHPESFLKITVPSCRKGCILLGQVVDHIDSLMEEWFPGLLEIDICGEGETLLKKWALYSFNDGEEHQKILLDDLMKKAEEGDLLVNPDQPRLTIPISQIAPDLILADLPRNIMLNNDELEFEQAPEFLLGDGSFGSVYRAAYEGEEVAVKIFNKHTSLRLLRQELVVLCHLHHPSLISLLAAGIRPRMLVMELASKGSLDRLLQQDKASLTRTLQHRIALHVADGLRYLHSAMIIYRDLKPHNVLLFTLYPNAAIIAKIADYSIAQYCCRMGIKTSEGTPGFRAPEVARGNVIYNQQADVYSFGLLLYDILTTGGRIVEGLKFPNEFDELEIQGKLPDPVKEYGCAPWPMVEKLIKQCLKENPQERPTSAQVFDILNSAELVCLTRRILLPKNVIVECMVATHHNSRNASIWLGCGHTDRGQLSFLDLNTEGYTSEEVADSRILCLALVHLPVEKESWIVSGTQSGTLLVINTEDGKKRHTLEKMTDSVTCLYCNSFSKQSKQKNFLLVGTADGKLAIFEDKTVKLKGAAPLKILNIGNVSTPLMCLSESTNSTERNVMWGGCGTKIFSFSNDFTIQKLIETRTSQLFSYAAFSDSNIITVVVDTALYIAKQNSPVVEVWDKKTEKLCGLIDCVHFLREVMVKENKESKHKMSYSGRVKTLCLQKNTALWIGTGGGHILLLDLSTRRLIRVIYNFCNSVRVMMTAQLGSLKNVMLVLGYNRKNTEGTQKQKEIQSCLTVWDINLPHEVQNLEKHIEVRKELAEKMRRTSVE
Description: In Vitro LRRK2 Assay (LabChip 3000, fluorescently-labeled peptide substrate, ATP). In kind it is biochemical. The following applies: Table 10; LRRK2 Ki (micromolar); read-out: LRRK2 Ki (KI). The method, boiled down:
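Read-out was LabChip capillary electrophoresis, resolving phospho- from non-phospho-peptide by fluorescence intensity. The kinase reaction combined enzyme, ATP, test compound and labeled peptide (4 μM working dilution) for 2 h in darkness before stop solution. Values were reported as Ki, from a tight-binding model with Et, S and Km, or as IC50 or percent inhibition.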
On to `CNc1nc(Nc2cnn([C@H](C)C(=O)N(C)C)c2C)ncc1C(F)(F)F` [Example 412, (R)-N,N-dimethyl-2-(5-methyl-4-(4-(methylamino)-5-(trifluoromethyl)pyrimidin-2-ylamino)-1H-pyrazol-1-yl)propanamide], for which the Ki (as a rule, the equilibrium dissociation constant of an inhibitor or competing ligand from its target) is 28.4 nM. Take `CNc1nc(Nc2cnn(C(C)(C)C(=O)NCC3CC3)c2C)ncc1C(F)(F)F` [Example 426, N-(cyclopropylmethyl)-2-methyl-2-(5-methyl-4-(4-(methylamino)-5-(trifluoromethyl)pyrimidin-2-ylamino)-1H-pyrazol-1-yl)propanamide]: the Ki is 9 nM.

The same assay, now with this note: read-out: LRRK2 Ki (KI), Table 7.
For the compound `COCCn1cc(Nc2ncc(Cl)c(OC)n2)c(C)n1` [Example 19, 5-Chloro-4-methoxy-N-(1-(2-methoxyethyl)-3-methyl-1H-pyrazol-4-yl)pyrimidin-2-amine], the inhibitory constant (Ki) was 15 nM. Still for that read-out and setting: to `CNc1nc(Nc2c(C)nn(C)c2C)ncc1C(F)(F)F` [Example 10, N^4-methyl-5-(trifluoromethyl)-N^2-(1,3,5-trimethyl-1H-pyrazol-4-yl)pyrimidinc-2,4-diamine] belongs 96 nM; to `COc1nc(Nc2cnn(S(=O)(=O)C3CC3)c2C)ncc1Cl` [Example 70, 5-chloro-N-(1-(cyclopropyl-sulfonyl)-5-methyl-1H-pyrazol-4-yl)-4-methoxy-pyrimidin-2-amine], 15 nM. The same measure, in the same setting: as for `CNc1nc(Nc2cc(C(C)C)nn2C)ncc1C(F)(F)F` [Example 38, N^2-(3-isopropyl-1-methyl-1H-pyrazol-5-yl)-N^4-methyl-5-(trifluoromethyl) pyrimidine-2,4-diamine], the figure is 12 nM.

Still in this assay, the particulars now being: read-out: LRRK2 Ki (KI), Table 8.
Regarding `CCNc1nc(Nc2cn(C)nc2C2CCC2)ncc1C(F)(F)F` [Example 281, N2-(3-Cyclobutyl-1-methyl-1H-pyrazol-4-yl)-N4-ethyl-5-trifluoromethyl-pyrimidine-2,4-diamine], the Ki is 1.3 nM. For `CCNc1nc(Nc2cnn(-c3ccc(C(=O)N(C)C)cc3)c2C)ncc1C(F)(F)F` [Example 157, 4-(4-(4-(ethylamino)-5-(trifluoromethyl)pyrimidin-2-ylamino)-5-methyl-1H-pyrazol-1-yl)-N,N-dimethylbenzamide], the Ki is 0.3 nM. As for `CNc1nc(Nc2cnn(C3CCN(CC(F)(F)F)CC3)c2C)ncc1Br` [Example 93, 5-bromo-N4-methyl-N2-(5-methyl-1-(1-(2,2,2-trifluoroethyl)piperidin-4-yl)-1H-pyrazol-4-yl)pyrimidine-2,4-diamine], the Ki worked out at 1.4 nM. Consider `CNc1nc(Nc2cnn(C)c2N(C)C)ncc1C(F)(F)F` [Example 247, N2-(5-(dimethylamino)-1-methyl-1H-pyrazol-4-yl)-N4-methyl-5-(trifluoromethyl) pyrimidine-2,4-diamine], for which the Ki was 77.9 nM. Still for that read-out and setting: to `CNc1nc(Nc2cnn(C3CCN(CC(F)(F)F)CC3)c2C)ncc1C(F)(F)F` [Example 91, N4-methyl-N2-(5-methyl-1-(1-(2,2,2-trifluoroethyl)piperidin-4-yl)-1H-pyrazol-4-yl)-5-(trifluoromethyl) pyrimidine-2,4-diamine] belongs 4.1 nM. Same read-out and setting: as for `CNc1nc(Nc2cn(C3CCN(C4COC4)CC3)nc2C)ncc1C(F)(F)F` [Example 131, N4-methyl-N2-(3-methyl-1-(1-(oxetan-3-yl)piperidin-4-yl)-1H-pyrazol-4-yl)-5-(trifluoromethyl) pyrimidine-2,4-diamine], the figure is 37.4 nM; as for `CNc1nc(Nc2cn(C(F)F)nc2C)ncc1Br` [Example 256, 5-Bromo-N2-(1-difluoromethyl-3-methyl-1H-pyrazol-4-yl)-N4-methyl-pyrimidine-2,4-diamine], 2.2 nM; as for `CNc1nc(Nc2cnn(Cc3cccnn3)c2C)ncc1C(F)(F)F` [Example 309, N4-Methyl-N2-(5-methyl-1-pyridazin-3-ylmethyl-1H-pyrazol-4-yl)-5-trifluoromethyl-pyrimidine-2,4-diamine], 2.8 nM. In the case of `CNc1nc(Nc2cn([C@@H]3CCN(C4COC4)C3)nc2C)ncc1C(F)(F)F` [Example 204, (R)-N4-methyl-N2-(3-methyl-1-(1-(oxetan-3-yl)pyrrolidin-3-yl)-1H-pyrazol-4-yl)-5-(trifluoromethyl) pyrimidine-2,4-diamine], the inhibitory constant (Ki) stood at 29 nM.

Consider `CNc1nc(Nc2cn(Cc3cccc(C)n3)nc2C)ncc1C(F)(F)F` [Example 293, N4-Methyl-N2-[3-methyl-1-(6-methyl-pyridin-2-ylmethyl)-1H-pyrazol-4-yl]-5-trifluoromethyl-pyrimidine-2,4-diamine], for which the Ki turned out to be 0.6 nM.

Consider `CCNc1nc(Nc2cn(CC(C)(C)O)nc2C)ncc1C(F)(F)F` [Example 297, 1-[4-(4-Ethylamino-5-trifluoromethyl-pyrimidin-2-ylamino)-3-methyl-pyrazol-1-yl]-2-methyl-propan-2-ol], for which the Ki is 2.1 nM. In the case of `CNc1nc(Nc2cn(Cc3ccncn3)nc2C)ncc1C(F)(F)F` [Example 329, N4-Methyl-N2-(3-methyl-1-pyrimidin-4-ylmethyl-1H-pyrazol-4-yl)-5-trifluoromethyl-pyrimidine-2,4-diamine], the Ki came out at 5.2 nM. The same measure, in the same setting: to `CNc1nc(Nc2cn(S(=O)(=O)C(C)C)nc2C)ncc1C(F)(F)F` [Example 217, N2-(1-(isopropylsulfonyl)-3-methyl-1H-pyrazol-4-yl)-N4-methyl-5-(trifluoromethyl) pyrimidine-2,4-diamine] belongs 9.9 nM.

As to `CCNc1nc(Nc2cnn([C@H]3CCCN(C4COC4)C3)c2C)ncc1C(F)(F)F` [Example 307, N4-Ethyl-N2-[5-methyl-1-((S)-1-oxetan-3-yl-piperidin-3-yl)-1H-pyrazol-4-yl]-5-trifluoromethyl-pyrimidine-2,4-diamine], the Ki turned out to be 0.3 nM. For the compound `CCn1ncc(Nc2ncc(C(F)(F)F)c(NC)n2)c1Cl` [Example 139, N2-(5-chloro-1-ethyl-1H-pyrazol-4-yl)-N4-methyl-5-(trifluoromethyl) pyrimidine-2,4-diamine], the Ki was found to be 2 nM. On to `CNc1nc(Nc2cn(C3CCN(C(=O)C4CC4)CC3)nc2C)ncc1C(F)(F)F` [Example 136, cyclopropyl(4-(3-methyl-4-(4-(methylamino)-5-(trifluoromethyl)pyrimidin-2-ylamino)-1H-pyrazol-1-yl)piperidin-1-yl)methanone], for which the Ki amounted to 9.3 nM.

As for `CCNc1nc(Nc2cn(CC3(C)COC3)nc2C)ncc1C(F)(F)F` [Example 144, N4-ethyl-N2-(3-methyl-1-((3-methyloxetan-3-yl)methyl)-1H-pyrazol-4-yl)-5-(trifluoromethyl) pyrimidine-2,4-diamine], the Ki is 0.9 nM. As for `CCNc1nc(Nc2cn(C3CCNCC3F)nc2C)ncc1C(F)(F)F` (centres unmarked) [Example 333, N4-Ethyl-N2-[1-(3-fluoro-piperidin-4-yl)-3-methyl-1H-pyrazol-4-yl]-5-trifluoromethyl-pyrimidine-2,4-diamine], the Ki was determined as 0.7 nM. The same measure, in the same setting: to `CNc1nc(Nc2cn(C(C)(C)c3nnc[nH]3)nc2C)ncc1C(F)(F)F` [Example 332, N4-Methyl-N2-{3-methyl-1-[1-methyl-1-(4H-[1,2,4]triazol-3-yl)-ethyl]-1H-pyrazol-4-yl}-5-trifluoromethyl-pyrimidine-2,4-diamine] belongs 2.3 nM; to `CNc1nc(Nc2cn(C3CCN(C)CC3F)nc2C)ncc1C(F)(F)F` (centres unmarked) [Example 222, N2-(1-(3-fluoro-1-methylpiperidin-4-yl)-3-methyl-1H-pyrazol-4-yl)-N4-methyl-5-(trifluoromethyl) pyrimidine-2,4-diamine], 1.6 nM.
